Data on 23 molecules can be found in patent publication US20170107229A1, “SUBSTITUTED TETRAHYDROPYRIDOTHIENOPYRIMIDINES” (BAYER PHARMA AKTIENGESELLSCHAFT, priority 2014, published 2017).

In this assay the target is T1, human full-length MKNK1 (Homo sapiens, UniProt Q9BUB5, T385D).
T1 construct: GST (N); purchased Carna Biosciences 02-145; host or cells: insect cells (baculovirus expression system)
T1 sequence (Q9BUB5 1-424 isoform Q9BUB5-2 T344D): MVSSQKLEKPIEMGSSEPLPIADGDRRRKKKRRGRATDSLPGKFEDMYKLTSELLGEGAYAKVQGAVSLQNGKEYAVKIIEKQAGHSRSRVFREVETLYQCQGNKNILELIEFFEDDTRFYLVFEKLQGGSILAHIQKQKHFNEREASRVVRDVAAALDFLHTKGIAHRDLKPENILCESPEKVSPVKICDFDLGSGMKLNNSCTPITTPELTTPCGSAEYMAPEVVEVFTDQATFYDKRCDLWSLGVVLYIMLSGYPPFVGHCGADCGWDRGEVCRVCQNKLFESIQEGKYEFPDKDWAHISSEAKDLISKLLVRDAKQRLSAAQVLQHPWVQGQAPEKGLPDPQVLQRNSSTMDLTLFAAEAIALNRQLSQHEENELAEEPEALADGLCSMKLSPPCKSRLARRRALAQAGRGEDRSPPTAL
As to the kind of experiment: MKNK1 kinase high ATP assay (TR-FRET). It is filed as biochemical. To be noted: high ATP (2 mM final), 15 min preincubation with enzyme, GST-MKNK1 (T344D). The method, then: MKNK1-inhibitory activity at high ATP of compounds of the present invention after their preincubation with MKNK1 was quantified employing the TR-FRET-based MKNK1 high ATP assay as described in the following paragraphs.
A recombinant fusion protein of Glutathione-S-Transferase (GST, N-terminally) and human full-length MKNK1 (amino acids 1-424 and T344D of accession number BAA 19885.1), expressed in insect cells using baculovirus expression system and purified via glutathione sepharose affinity chromatography, was purchased from Carna Biosciences (product no 02-145) and used as enzyme. As substrate for the kinase reaction the biotinylated peptide biotin-Ahx-IKKRKLTRRKSLKG (C-terminus in amide form) was used, which can be purchased e.g. from the company Biosyntan (Berlin-Buch, Germany).
For the assay 50 nL of a 100fold concentrated solution of the test compound in DMSO was pipetted into a black low volume 384well microtiter plate (Greiner Bio-One, Frickenhausen, Germany), 2 μL of a solution of MKNK1 in aqueous assay buffer [50 mM HEPES pH 7.5, 5 mM MgCl2, 1.0 mM dithiothreitol, 0.005% (v/v) Nonidet-P40 (Sigma)] was added and the mixture was incubated for 15 min at 22° C. to allow pre-binding of the test compounds to the enzyme before the start of the kinase reaction. Then the kinase reaction was started by the addition of 3 μL of a solution of adenosine-tri-phosphate (ATP, 3.3 mM=>final conc. in the 5 μL assay volume is 2 mM) and substrate (0.1 μM=>final conc. in the 5 μL assay volume is 0.06 μM) in assay buffer and the resulting mixture was incubated for a reaction time of 30 min at 22° C. The concentration of MKNK1 was adjusted depending of the activity of the enzyme lot and was chosen appropriate to have the assay in the linear range, typical concentrations were in the range of 0.003 μg/mL. The reaction was stopped by the addition of 5 μL of a solution of TR-FRET detection reagents (5 nM streptavidine-XL665 [Cisbio Bioassays, Codolet, France] and 1 nM anti-ribosomal protein S6 (pSer236)-antibody from Invitrogen [#44921G] and 1 nM LANCE EU-W1024 labeled ProteinG [Perkin-Elmer, product no. AD0071]) in an aqueous EDTA-solution (100 mM EDTA, 0.1% (w/v) bovine serum albumin in 50 mM HEPES pH 7.5).
The resulting mixture was incubated for 1 h at 22° C. to allow the formation of complex between the phosphorylated biotinylated peptide and the detection reagents. Subsequently the amount of phosphorylated substrate was evaluated by measurement of the resonance energy transfer from the Eu-chelate to the streptavidine-XL. Therefore, the fluorescence emissions at 620 nm and 665 nm after excitation at 350 nm were measured in a TR-FRET reader, e.g. a Rubystar (BMG Labtechnologies, Offenburg, Germany) or a Viewlux (Perkin-Elmer). The ratio of the emissions at 665 nm and at […] was taken as the measure for the amount of phosphorylated substrate. The data were normalised (enzyme reaction without inhibitor=0% inhibition, all other assay components but no enzyme=100% inhibition).
On the technique in general: Time-resolved FRET reads energy transfer from a long-lived donor to a nearby acceptor.
For orientation: IC50 means the midpoint of a concentration-inhibition curve. `COc1cc2[nH]ncc2cc1Nc1ncnc2sc3c(c12)CCN(C(=O)N1C[C@H](C)O[C@@H](C)C1)C3` [Example 94, [(2S,6S)-2,6-Dimethylmorpholin-4-yl]{4-[(6-methoxy-1H-indazol-5-yl)amino]-5,8-dihydropyrido[4′,3′:4,5]thieno[2,3-d]pyrimidin-7(6H)-yl}methanone] came in with an IC50 of 3 nM.

`C[C@@H]1CN(C(=O)N2CCc3c(sc4ncnc(Nc5ccn6nccc6c5)c34)C2)C[C@H](C)O1` [Example 58, [(2R,6S)-2,6-Dimethylmorpholin-4-yl][4-(pyrazolo[1,5-a]pyridin-5-ylamino)-5,8-dihydropyrido[4′,3′:4,5]thieno[2,3-d]pyrimidin-7(6H)-yl]methanone] gave an IC50 of 61 nM.

Regarding `CC(C)C(=O)N1CCc2c(sc3ncnc(Nc4cc5cn[nH]c5cc4Cl)c23)C1` [Example 56, 1-{4-[(6-Chloro-1H-indazol-5-yl)amino]-5,8-dihydropyrido[4′,3′:4,5]thieno[2,3-d]pyrimidin-7(6H)-yl}-2-methylpropan-1-one], the half-inhibitory concentration (IC50) was 71 nM.

On to `CSc1cc2[nH]ncc2cc1Nc1ncnc2sc3c(c12)CCN(C(=O)N(C)C)C3` [Example 46, N,N-Dimethyl-4-{[6-(methylsulfanyl)-1H-indazol-5-yl]amino}-5,8-dihydropyrido[4′,3′:4,5]thieno[2,3-d]pyrimidine-7(6H)-carboxamide], for which the IC50 was determined as 87 nM.

The molecule `COc1cc2[nH]ncc2cc1Nc1ncnc2sc3c(c12)CCN(C(=O)N1CCOCC1)C3` [Example 42, {4-[(6-Methoxy-1H-indazol-5-yl)amino]-5,8-dihydropyrido[4′,3′:4,5]thieno[2,3-d]pyrimidin-7(6H)-yl}(morpholin-4-yl)methanone] yielded an IC50 of 22 nM.

Regarding `COc1cc2[nH]ncc2cc1Nc1ncnc2sc3c(c12)CCN(S(C)(=O)=O)C3` [Example 37, N-(6-Methoxy-1H-indazol-5-yl)-7-(methylsulfonyl)-5,6,7,8-tetrahydropyrido[4′,3′:4,5]thieno[2,3-d]pyrimidin-4-amine], the IC50 turned out to be 3 nM.

In the case of `O=C(N1CCOCC1)N1CCc2c(sc3ncnc(Nc4ccc5[nH]c(=O)sc5c4)c23)C1` [Example 41, 6-{[7-(Morpholin-4-ylcarbonyl)-5,6,7,8-tetrahydropyrido[4′,3′:4,5]thieno[2,3-d]pyrimidin-4-yl]amino}-1,3-benzothiazol-2(3H)-one], the IC50 stood at 216 nM.

In turn, `O=C(N1CCOCC1)N1CCc2c(sc3ncnc(Nc4cc5cn[nH]c5cn4)c23)C1` [Example 24, Morpholin-4-yl[4-(1H-pyrazolo[3,4-c]pyridin-5-ylamino)-5,8-dihydropyrido[4′,3′:4,5]thieno[2,3-d]pyrimidin-7(6H)-yl]methanone] displayed an IC50 of 28 nM.

As for `COc1nc2[nH]ncc2cc1Nc1ncnc2sc3c(c12)CCN(C(=O)C(C)C)C3` [Example 55, 1-{4-[(6-Methoxy-1H-pyrazolo[3,4-b]pyridin-5-yl)amino]-5,8-dihydropyrido[4′,3′:4,5]thieno[2,3-d]pyrimidin-7(6H)-yl}-2-methylpropan-1-one], the IC50 worked out at 42 nM. This IC50 lies about 1.5-fold higher than the previous one.

On to `CSc1cc2[nH]ncc2cc1Nc1ncnc2sc3c(c12)CCN(S(C)(=O)=O)C3` [Example 48, N-[6-(Methylsulfanyl)-1H-indazol-5-yl]-7-(methylsulfonyl)-5,6,7,8-tetrahydropyrido[4′,3′:4,5]thieno[2,3-d]pyrimidin-4-amine], for which the IC50 worked out at 27 nM.

The molecule `c1nc(Nc2cnc3[nH]ncc3c2)c2c3c(sc2n1)CN(CCN1CCOCC1)CC3` [Example 64, 7-[2-(Morpholin-4-yl)ethyl]-N-(1H-pyrazolo[3,4-b]pyridin-5-yl)-5,6,7,8-tetrahydropyrido[4′,3′:4,5]thieno[2,3-d]pyrimidin-4-amine] gave an IC50 of 119 nM. This IC50 lies about 4.4-fold higher than the previous one.

In the case of `C[C@@H]1CN(C(=O)N2CCc3c(sc4ncnc(Nc5ccc6[nH]ncc6c5)c34)C2)C[C@H](C)O1` [Example 33, [(2R,6S)-2,6-Dimethylmorpholin-4-yl][4-(1H-indazol-5-ylamino)-5,8-dihydropyrido[4′,3′:4,5]thieno[2,3-d]pyrimidin-7(6H)-yl]methanone], the concentration for half-maximal inhibition (IC50) amounted to 21 nM.

In turn, `C[C@@H]1CN(C(=O)N2CCc3c(sc4ncnc(Nc5cc6cn[nH]c6cn5)c34)C2)C[C@H](C)O1` [Example 34, [(2R,6S)-2,6-Dimethylmorpholin-4-yl][4-(1H-pyrazolo[3,4-c]pyridin-5-ylamino)-5,8-dihydropyrido[4′,3′:4,5]thieno[2,3-d]pyrimidin-7(6H)-yl]methanone] came in with an IC50 of 70 nM.

The molecule `COc1cc2[nH]ncc2cc1Nc1ncnc2sc3c(c12)CCN(CCCN1CCOCC1=O)C3` [Example 87, 4-(3-{4-[(6-Methoxy-1H-indazol-5-yl)amino]-5,8-dihydropyrido[4′,3′:4,5]thieno[2,3-d]pyrimidin-7(6H)-yl}propyl)morpholin-3-one] came in with an IC50 of 16 nM.

Molecule `COc1nc2[nH]ncc2cc1Nc1ncnc2sc3c(c12)CCN(S(C)(=O)=O)C3` [Example 50, N-(6-Methoxy-1H-pyrazolo[3,4-b]pyridin-5-yl)-7-(methylsulfonyl)-5,6,7,8-tetrahydropyrido[4′,3′:4,5]thieno[2,3-d]pyrimidin-4-amine] displayed an IC50 of 40 nM.

Regarding `COc1nc2[nH]ncc2cc1Nc1ncnc2sc3c(c12)CCN(C(=O)OC(C)(C)C)C3` [Example 59, tert-Butyl 4-[(6-methoxy-1H-pyrazolo[3,4-b]pyridin-5-yl)amino]-5,8-dihydropyrido[4′,3′:4,5]thieno[2,3-d]pyrimidine-7(6H)-carboxylate], the concentration for half-maximal inhibition (IC50) is 5 nM.

`COc1nc2[nH]ncc2cc1Nc1ncnc2sc3c(c12)CCN(C(=O)N(C)C)C3` [Example 65, 4-[(6-Methoxy-1H-pyrazolo[3,4-b]pyridin-5-yl)amino]-N,N-dimethyl-5,8-dihydropyrido[4′,3′:4,5]thieno[2,3-d]pyrimidine-7(6H)-carboxamide] showed a half-maximal inhibitory concentration (IC50) of 5 nM.

In turn, `CC(C)C(=O)N1CCc2c(sc3ncnc(Nc4cnc5[nH]ncc5c4)c23)C1` [Example 21, 2-Methyl-1-[4-(1H-pyrazolo[3,4-b]pyridin-5-ylamino)-5,8-dihydropyrido[4′,3′:4,5]thieno[2,3-d]pyrimidin-7(6H)-yl]propan-1-one] displayed a concentration for half-maximal inhibition (IC50) of 40 nM.

On to `CN1CCC(C(=O)N2CCc3c(sc4ncnc(Nc5ccn6nccc6c5)c34)C2)CC1` [Example 79, (1-Methylpiperidin-4-yl)[4-(pyrazolo[1,5-a]pyridin-5-ylamino)-5,8-dihydropyrido[4′,3′:4,5]thieno[2,3-d]pyrimidin-7(6H)-yl]methanone], for which 188 nM corresponded to half-maximal inhibition (IC50).

Turning to `COc1cc2[nH]ncc2cc1Nc1ncnc2sc3c(c12)CCN(Cc1cc(C(=O)N(C)C)no1)C3` [Example 88, 5-({4-[(6-Methoxy-1H-indazol-5-yl)amino]-5,8-dihydropyrido[4′,3′:4,5]thieno[2,3-d]pyrimidin-7(6H)-yl}methyl)-N,N-dimethyl-1,2-oxazole-3-carboxamide], the IC50 stood at 9 nM.

With `COc1cc2[nH]ncc2cc1Nc1ncnc2sc3c(c12)CCN(C(=O)N1C[C@@H](C)O[C@H](C)C1)C3` [Example 95, [(2R,6R)-2,6-Dimethylmorpholin-4-yl]{4-[(6-methoxy-1H-indazol-5-yl)amino]-5,8-dihydropyrido[4′,3′:4,5]thieno[2,3-d]pyrimidin-7(6H)-yl}methanone], the half-inhibitory concentration (IC50) stood at 3 nM.

For `O=C(N1CCOCC1)N1CCc2c(sc3ncnc(Nc4cc5cn[nH]c5cc4Br)c23)C1` [Example 53, {4-[(6-Bromo-1H-indazol-5-yl)amino]-5,8-dihydropyrido[4′,3′:4,5]thieno[2,3-d]pyrimidin-7(6H)-yl}(morpholin-4-yl)methanone], the IC50 amounted to 258 nM. This IC50 lies about 86-fold higher than the previous one.

The molecule `CS(=O)(=O)N1CCc2c(sc3ncnc(Nc4cnc5[nH]ncc5c4)c23)C1` [Example 40, 7-(Methylsulfonyl)-N-(1H-pyrazolo[3,4-b]pyridin-5-yl)-5,6,7,8-tetrahydropyrido[4′,3′:4,5]thieno[2,3-d]pyrimidin-4-amine] gave a half-maximal inhibitory concentration (IC50) of 139 nM. Against the preceding molecule, the IC50 is about 1.9-fold lower.
